This passage reports IC50 results from the Kinase Knowledgebase extract (Sharma et al. 2016).

SMILES strings stand for the structures. Values after ≈ are worked out from the molar mass of the structure shown.

The target of the test is EGFR (UniProt P00533).
Sequence of EGFR (P00533 whole entry, looked up): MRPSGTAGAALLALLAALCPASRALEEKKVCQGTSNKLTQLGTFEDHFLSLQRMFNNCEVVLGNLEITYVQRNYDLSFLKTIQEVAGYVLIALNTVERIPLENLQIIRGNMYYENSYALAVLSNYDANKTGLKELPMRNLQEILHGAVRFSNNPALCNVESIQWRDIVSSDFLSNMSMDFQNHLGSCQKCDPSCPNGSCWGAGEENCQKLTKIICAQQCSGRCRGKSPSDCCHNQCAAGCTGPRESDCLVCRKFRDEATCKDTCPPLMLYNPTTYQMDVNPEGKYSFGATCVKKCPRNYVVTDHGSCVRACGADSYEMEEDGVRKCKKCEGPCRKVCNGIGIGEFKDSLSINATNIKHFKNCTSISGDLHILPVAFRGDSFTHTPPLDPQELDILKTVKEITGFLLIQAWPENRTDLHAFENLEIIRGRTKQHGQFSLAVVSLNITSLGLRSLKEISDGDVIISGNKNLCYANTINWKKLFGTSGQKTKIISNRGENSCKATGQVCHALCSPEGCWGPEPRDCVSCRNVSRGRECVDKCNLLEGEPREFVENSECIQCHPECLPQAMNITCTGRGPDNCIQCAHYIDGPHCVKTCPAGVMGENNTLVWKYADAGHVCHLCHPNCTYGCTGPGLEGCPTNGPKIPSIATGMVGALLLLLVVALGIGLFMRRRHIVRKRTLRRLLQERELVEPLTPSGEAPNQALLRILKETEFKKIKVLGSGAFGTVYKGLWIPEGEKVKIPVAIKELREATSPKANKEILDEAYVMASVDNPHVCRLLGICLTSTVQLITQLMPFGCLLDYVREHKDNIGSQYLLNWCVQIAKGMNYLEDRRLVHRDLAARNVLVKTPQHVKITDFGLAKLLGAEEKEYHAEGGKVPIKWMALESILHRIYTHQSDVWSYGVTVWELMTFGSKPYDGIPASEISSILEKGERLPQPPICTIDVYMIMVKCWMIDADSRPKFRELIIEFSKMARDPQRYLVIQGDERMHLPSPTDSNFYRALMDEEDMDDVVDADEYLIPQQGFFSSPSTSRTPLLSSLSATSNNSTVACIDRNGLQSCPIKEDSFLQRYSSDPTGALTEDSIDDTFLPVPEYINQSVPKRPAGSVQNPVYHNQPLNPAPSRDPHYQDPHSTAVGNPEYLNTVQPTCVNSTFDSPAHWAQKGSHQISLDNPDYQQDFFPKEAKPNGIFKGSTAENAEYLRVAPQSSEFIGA
`O=c1[nH]c2ccccc2n1-c1ncnc(Nc2cccc(NS(=O)(=O)c3ccc([N+](=O)[O-])cc3)c2)n1` had an IC50 of 0.4 to 2.4 µg/mL (≈ 0.793 to 4.76 µM).

For `COc1cc(Nc2ncnc(Nc3cccc4ccccc34)n2)cc(OCCN2CCOCC2)c1OC`, the IC50 is less than 0.4 µg/mL.

`O=c1[nH]c2ccccc2n1-c1ncnc(Nc2cccc3ncccc23)n1`: the IC50 was more than 4.5 µg/mL.

On to `COc1ccc(Nc2ncnc(-n3c(N)nc4ccccc43)n2)cc1`, for which the IC50 lay within 2.4 to 3.5 µg/mL (≈ 7.2 to 10.5 µM).

`NC(=O)c1ccc(Nc2ncnc(-n3c(=O)[nH]c4ccccc43)n2)cc1` had an IC50 of more than 4.5 µg/mL.

Compound `COc1cc(Nc2ncnc(-n3c(NCc4ccc(OC(F)(F)F)cc4)nc4ccccc43)n2)cc(OC)c1OC` gave a concentration for half-maximal inhibition (IC50) of more than 4.5 µg/mL.

With `COc1cccc(Nc2nc3ccccc3n2-c2ncnc(Nc3cc(OC)c(OC)c(OC)c3)n2)c1`, the IC50 was more than 4.5 µg/mL.

On to `COc1ccc(Nc2nc3ccccc3n2-c2ncnc(Nc3cc(OC)c(OC)c(OC)c3)n2)cc1`, for which the IC50 is more than 4.5 µg/mL.

Regarding `COc1cc(Nc2ncnc(-n3c(NCc4ccc(C)cc4)nc4ccccc43)n2)cc(OC)c1OC`, the half-inhibitory concentration (IC50) was more than 4.5 µg/mL.

For the compound `Cc1ccc2c(c1)CCCN2c1ncnc(Nc2cc[nH]n2)n1`, the 50% inhibitory concentration (IC50) lay in the range of 0.4 to 2.4 µg/mL (≈ 1.3 to 7.81 µM).

Take `COc1cc(Nc2ncnc(Nc3cc(C(C)(C)C)[nH]n3)n2)cc(OC)c1OC`: the half-maximal inhibitory concentration (IC50) lay in the range of 0.4 to 2.4 µg/mL (≈ 1 to 6.01 µM).

The compound `CNc1nc2ccccc2n1-c1ncnc(Nc2cc(OC)c(OC)c(OC)c2)n1` came in with an IC50 of more than 4.5 µg/mL.

`COc1cc(Nc2ncnc(-c3cccnc3NC(C)C)n2)ccc1NC(=O)CCCN1CCNCC1` came in with an IC50 of more than 4.5 µg/mL.

For `COc1cc(Nc2ncnc(-n3c(NCc4ccccn4)nc4ccccc43)n2)cc(OC)c1OC`, the half-maximal inhibitory concentration (IC50) was more than 4.5 µg/mL.

`CN(c1cccc(Cl)c1)c1ncnc(Nc2ccc(OCCO)cc2)n1` yielded a concentration for half-maximal inhibition (IC50) of less than 0.4 µg/mL.

`COC(=O)c1ccc(-c2cc(Nc3ncnc(NCc4ccccc4F)n3)[nH]n2)cc1` gave a 50% inhibitory concentration (IC50) of more than 4.5 µg/mL.

In turn, `CN(c1cccc(Cl)c1)c1ncnc(N[C@@H]2CCN(Cc3ccccc3)C2)n1` had an IC50 of more than 4.5 µg/mL.

Compound `Cc1cc(Br)ccc1Nc1ncnc(-n2cccc2)n1` yielded an IC50 of more than 4.5 µg/mL.

`COC(=O)c1sccc1Nc1ncnc(Nc2cc(OC)c(OC)c(OC)c2)n1` displayed an IC50 of more than 4.5 µg/mL.

Consider `COc1cc(Nc2ncnc(-n3c(NCc4cccc(Br)c4)nc4ccccc43)n2)cc(OC)c1OC`, for which the half-inhibitory concentration (IC50) fell in the range of 3.5 to 4.5 µg/mL (≈ 6.22 to 8 µM).

As for `Nc1ccc(Nc2ncnc(-c3ccccc3)n2)cc1`, the IC50 is more than 4.5 µg/mL.

Turning to `c1coc(-c2cc(Nc3ncnc(Nc4ccc(-c5csnn5)cc4)n3)n[nH]2)c1`, the IC50 lay in the range of 0.4 to 2.4 µg/mL (≈ 0.991 to 5.95 µM).

Compound `COc1cc(Nc2ncnc(-c3cccnc3NCc3cccc4ccccc34)n2)cc(OC)c1OC` registered an IC50 of more than 4.5 µg/mL.

On to `O=C(Nc1cccc(Nc2ncnc(-n3c(=O)[nH]c4ccccc43)n2)c1)O[C@@H]1CCOC1`, for which the concentration for half-maximal inhibition (IC50) fell in the range of 2.4 to 3.5 µg/mL (≈ 5.54 to 8.08 µM).

In the case of `C#Cc1cccc(Nc2ncnc(Nc3cc(-c4ccccc4)n[nH]3)n2)c1`, the half-maximal inhibitory concentration (IC50) was in the range of 0.4 to 2.4 µg/mL (≈ 1.13 to 6.79 µM).

Consider `COc1cc(Nc2ncnc(NC(=O)NCc3ccccc3)n2)cc(OC)c1OC`, for which the IC50 is 0.4 to 2.4 µg/mL (≈ 0.975 to 5.85 µM).

With `COc1cc(Nc2ncnc(Nc3ccc(C)cc3)n2)cc(OC)c1OC`, the half-inhibitory concentration (IC50) was less than 0.4 µg/mL.

The compound `COc1ccc(-c2cc(Nc3ncnc(Nc4cc(OC)c(OC)c(OC)c4)n3)[nH]n2)cc1` had an IC50 of 0.4 to 2.4 µg/mL (≈ 0.89 to 5.34 µM).

For the compound `CCOc1cccc(Nc2ncnc(N3CCCc4cc(C)ccc43)n2)c1`, the IC50 is less than 0.4 µg/mL.

As for `CCc1ccccc1Nc1ncnc(-n2cccc2)n1`, the IC50 was more than 4.5 µg/mL.

With `Nc1ncnc(Nc2cc(Cl)ccc2O)n1`, the IC50 was more than 4.5 µg/mL.

`COc1cc(Nc2ncnc(-c3ccncc3)n2)cc(OC)c1OC` had an IC50 of more than 4.5 µg/mL.

Compound `COc1ccc(Nc2ncnc(N(C)c3cccc(Cl)c3)n2)cc1` came in with a concentration for half-maximal inhibition (IC50) of less than 0.4 µg/mL.

`COc1cc(Nc2ncnc(N(C)c3cccc(Cl)c3)n2)cc(OC)c1OC` displayed an IC50 of less than 0.4 µg/mL.

For the compound `COc1ccc(Nc2ncnc(NCC(O)c3ccccc3)n2)cc1OC` (configuration not stated), the 50% inhibitory concentration (IC50) was 3.5 to 4.5 µg/mL (≈ 9.53 to 12.2 µM).

In the case of `COc1cc(Nc2ncnc(-n3c(Nc4ccccc4C(N)=O)nc4ccccc43)n2)cc(OC)c1OC`, the IC50 is more than 4.5 µg/mL.

In turn, `CC(C)(C)c1cc(Nc2ncnc(Nc3ccc(CC(=O)O)cc3)n2)[nH]n1` registered a half-inhibitory concentration (IC50) of 0.4 to 2.4 µg/mL (≈ 1.09 to 6.53 µM).

Regarding `O=c1[nH]c2ccccc2n1-c1ncnc(Nc2ccccn2)n1`, the 50% inhibitory concentration (IC50) is more than 4.5 µg/mL.

Compound `O=c1[nH]c2ccccc2n1-c1ncnc(Nc2ccncn2)n1` had a concentration for half-maximal inhibition (IC50) of 2.4 to 3.5 µg/mL (≈ 7.84 to 11.4 µM).

`COc1cc(Nc2ncnc(-n3c(=O)oc4ccccc43)n2)cc(OC)c1OC`: the IC50 was in the range of 0.4 to 2.4 µg/mL (≈ 1.01 to 6.07 µM).

`COc1ccc2c(c1)c(CCNC(C)=O)cn2-c1ncnc(Nc2cc(OC)c(OC)c(OC)c2)n1`: the IC50 was more than 4.5 µg/mL.

For `COc1cc(C)c(Nc2ncnc(Nc3cc(-c4ccc(C)cc4)n[nH]3)n2)cc1OC`, the IC50 is more than 4.5 µg/mL.

`COC(=O)c1cccc(Nc2ncnc(-n3c(Cl)nc4ccccc43)n2)c1`: the half-maximal inhibitory concentration (IC50) lay within 2.4 to 3.5 µg/mL (≈ 6.3 to 9.19 µM).

With `COc1cc(Nc2ncnc(N3CCCC3)n2)cc(OC)c1OC`, the half-maximal inhibitory concentration (IC50) is more than 4.5 µg/mL.

Consider `COc1cc(Nc2ncnc(NCc3ccccc3)n2)cc(OC)c1OC`, for which the IC50 is less than 0.4 µg/mL.

`CC(C)Nc1ncccc1-c1ncnc(Nc2cccc(Cn3ccnn3)c2)n1`: the concentration for half-maximal inhibition (IC50) lay within 2.4 to 3.5 µg/mL (≈ 6.19 to 9.03 µM).

Turning to `CCN(c1cccc(C)c1)c1ncnc(Nc2cc(OC)c(OC)c(OC)c2)n1`, the half-maximal inhibitory concentration (IC50) was less than 0.4 µg/mL.
